Consider 2 compounds from ChEMBL document CHEMBL3407399, “BPIC: A novel anti-tumor lead capable of inhibiting inflammation and scavenging free radicals” (Bioorg Med Chem Lett, 2015).

Data set [1] relates to Mus musculus. Briefly: Antiinflammatory activity against xylene-induced male ICR mouse ear edema model assessed as plasma TNFalpha at 1 umol/kg, ip relative to NS. The format is functional, organism-based.
The nature of data set [2]: Antioxidant activity assessed as O2 free radical scavenging activity produced from dimethylpyridine-N-oxide by ESR assay. The format is physicochemical.
Data set [3] concerns Mus musculus. Briefly: Antiinflammatory activity against xylene-induced male ICR mouse ear edema model assessed as plasma IL-8 at 1 umol/kg, ip relative to NS. The format is functional, organism-based.
A short description of data set [4]: Antiproliferative activity against human SH-SY5Y cells assessed as cell viability after 48 hrs by MTT assay. The format is functional, cell-based. In general terms: Tetrazolium assays rely on reduction of a dye to a coloured formazan, in cell work by metabolically active cells.
A further data set deals with A549. Briefly: Antiproliferative activity against human A549 cells assessed as cell viability after 48 hrs by MTT assay. It is filed as functional, cell-based. Conditions: A549, 48 h.
Data set [5] relates to Calf thymus DNA. Kind of data set: Binding affinity to calf thymus DNA at 40 uM by fluoresce spectrum analysis. The format is nucleic-acid assay. Conditions: Bos taurus.
In data set [6] the test system is CCRF S-180. Kind of data set: Antitumor activity against mouse S180 cells allografted in male ICR mouse assessed as tumor growth inhibition at 0.1 umol/kg, po treated ervery day for 7 days relative to NS control. The format is functional, organism-based.
A short description of data set [7]: Antioxidant activity assessed as OH free radical scavenging activity produced from dimethylpyridine-N-oxide by ESR assay. The format is physicochemical.
For data set [8], the system named is CCRF S-180. Kind of data set: Antiproliferative activity against mouse S180 cells assessed as cell viability after 48 hrs by MTT assay. It is filed as functional, cell-based. Conditions: CCRF S-180, 48 h.
The subject of data set [9] is Mus musculus. Kind of data set: Antiinflammatory activity in male ICR mouse assessed as xylene-induced ear edema at 1 umol/kg, ip relative to NS. The format is functional, organism-based.
For a further data set, the system named is HT-29. Kind of data set: Antiproliferative activity against human HT-29 cells assessed as cell viability after 48 hrs by MTT assay. It is filed as functional, cell-based. Conditions: HT-29, 48 h.
A short description of data set [10]: Antioxidant activity assessed as NO free radical scavenging activity produced from N-methyl-D-glucamine dithiocarbamate by ESR assay. The format is physicochemical.
The next data set deals with HepG2. Briefly: Antiproliferative activity against human HepG2 cells assessed as cell viability after 48 hrs by MTT assay. It is filed as functional, cell-based. Conditions: HepG2, 48 h.
Data set [11] deals with Calf thymus DNA. Briefly: Binding affinity to calf thymus DNA at 40 uM by UV-spectrophotometric analysis. It is filed as nucleic-acid assay. Conditions: Bos taurus.
Data set [12] concerns CCRF S-180. Briefly: Antitumor activity against mouse S180 cells allografted in male ICR mouse assessed as tumor growth inhibition treated orally ervery day for 7 days. It is filed as functional.
Data set [13] in a line: Antiproliferative activity against human HL60 cells assessed as cell viability after 48 hrs by MTT assay. Conditions: HL-60, 48 h. The format is functional, cell-based.
The test system of a further data set is K562. Briefly: Antiproliferative activity against human K562 cells assessed as cell viability after 48 hrs by MTT assay. The format is functional, cell-based. Conditions: K562, 48 h.
Another data set relates to HeLa. Kind of data set: Antiproliferative activity against human HeLa cells assessed as cell viability after 48 hrs by MTT assay. The format is functional, cell-based.

Activity calls are given as the source filed them. The calls are words filed in the database; no cut-off is given here.

A word on the EC50: it is the concentration at which the effect is half-maximal. For orientation: IC50 means the concentration that inhibits the measured activity by half. As for `COC(=O)c1cc(-c2nc(C(=O)OCc3ccccc3)cc3c2[nH]c2ccccc23)ccc1O`, the inhibition result with Mus musculus [1], with Mus musculus [3] and in the data set with Mus musculus [9] was “Active” in each case. Further, the results for the EC50 in data set [2], in data set [7] and in data set [10] were 285000 nM, 170 nM and 73000 nM, respectively. In addition, the IC50 (in data set [4]; in the data set on A549; with CCRF S-180 [8]; in the data set on HT-29; with HepG2; in data set [13]) was 960 nM in each case. Besides, the IC50 in the data set with K562 and with HeLa was 960 nM throughout. Also, the outcome in the data set on Calf thymus DNA [5] and in the data set on Calf thymus DNA [11] was Active. The inhibition result with CCRF S-180 [6] and with CCRF S-180 [12] was “Dose-dependent effect” throughout.
With `COc1cccc2c1C(=O)c1c(O)c3c(c(O)c1C2=O)C[C@@](O)(C(=O)CO)C[C@@H]3O[C@H]1C[C@H](N)[C@H](O)[C@H](C)O1` [DOXORUBICIN], in the data set on CCRF S-180 [8], the IC50 was found to be 9250 nM.
